System: SCF Hoxb8-ER progenitors
Conditions: SCF medium supplemented with the cytokine
Source text: Cells were photographed 6 days after differentiation was initiated by removal of estradiol. […] Distribution of mature cell types is indicated below each column, as measured at the end of the 6 day differentiation.

| Substance | progenitors maturing as macrophages (6 day differentiation) [%] | expansion during differentiation (estradiol removed) [fold] | impact on neutrophil-committed differentiation |
| --- | --- | --- | --- |
| GM-CSF | 16 | 830 |  |
| Erythropoietin |  |  | no impact |

Reference: patent US8795650B2, “Derivation of unlimited quantities of neutrophils or monocyte/dendritic cells” (The Regents of the University of California, priority 2004, dated 2014)
